For the test, the target named is T1, Mucosa-associated lymphoid tissue lymphoma translocation protein 1 (Homo sapiens, UniProt Q9UDY8).
T1 sequence (Q9UDY8 whole entry): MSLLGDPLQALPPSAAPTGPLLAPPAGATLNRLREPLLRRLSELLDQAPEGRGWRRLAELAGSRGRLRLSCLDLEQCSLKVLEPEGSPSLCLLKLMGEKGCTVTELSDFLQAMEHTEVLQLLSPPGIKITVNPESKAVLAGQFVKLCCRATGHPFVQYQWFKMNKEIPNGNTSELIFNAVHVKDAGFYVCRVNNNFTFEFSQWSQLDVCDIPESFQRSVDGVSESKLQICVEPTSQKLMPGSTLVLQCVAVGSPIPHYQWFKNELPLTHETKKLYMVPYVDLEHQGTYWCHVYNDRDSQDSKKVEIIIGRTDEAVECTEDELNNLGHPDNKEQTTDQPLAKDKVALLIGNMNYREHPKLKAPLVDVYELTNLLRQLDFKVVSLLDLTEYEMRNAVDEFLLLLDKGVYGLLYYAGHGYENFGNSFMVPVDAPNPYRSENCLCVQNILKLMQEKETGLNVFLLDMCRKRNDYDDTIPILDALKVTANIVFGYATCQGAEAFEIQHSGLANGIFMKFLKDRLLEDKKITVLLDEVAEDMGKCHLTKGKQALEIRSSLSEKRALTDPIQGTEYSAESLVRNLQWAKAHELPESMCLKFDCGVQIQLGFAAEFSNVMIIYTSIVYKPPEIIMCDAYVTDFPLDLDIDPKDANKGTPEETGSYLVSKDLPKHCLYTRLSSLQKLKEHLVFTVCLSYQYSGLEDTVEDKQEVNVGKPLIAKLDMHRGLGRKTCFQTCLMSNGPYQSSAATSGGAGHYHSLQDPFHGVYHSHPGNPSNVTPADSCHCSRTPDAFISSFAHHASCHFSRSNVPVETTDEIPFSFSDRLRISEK
In words: MALT1 Protease Assay 2. The procedure:
Test compounds were dissolved in 100% DMSO at stock of 10 mM, with final DMSO concentration 0.1%. Test compounds were pre-incubated with MALT1 protein for 2 h at room temperature.

A value given as a limit tells only on which side of the number the result lay.

Usually IC50 stands for the point on the concentration scale where inhibition reaches its midpoint. Higher therefore signals lower potency. `CCc1nn2c3c(cnc2c1N)N(C(=O)Nc1cnc(-n2nccn2)c(Cl)c1)C[C@]3(C)C(F)(F)F` [US20240018157, Example 157] came in with an IC50 of 100 to 1000 nM. Next, `C[S@@+]([O-])c1ccc(NC(=O)N2C[C@@](C)(C(F)(F)F)c3c2cnc2cc(Cl)nn32)cc1C(F)F` [US20240018157, Example 117]: 100 to 1000 nM; `Cc1nnc(C(F)F)cc1NC(=O)N1C[C@@](C)(C(F)(F)F)c2c1cnc1cc(F)nn21` [US20240018157, Example 161]: 100 to 1000 nM; `C[C@@]1(C(F)(F)F)CN(C(=O)Nc2cnc(-n3nccn3)c(Cl)c2)c2cnc3c(F)c(F)nn3c21` [US20240018157, Example 140]: less than 10 nM. Next, `C[C@@H](O)c1cnn(-c2ncc(NC(=O)N3C[C@@](C)(C(F)(F)F)c4c3cnc3cc(Cl)nn43)cc2C(F)F)n1` [US20240018157, Example 127]: less than 10 nM. Next, `C[C@H](O)c1cc(NC(=O)N2C[C@@](C)(C(F)(F)F)c3c2cnc2cc(Cl)nn32)cc(C(F)(F)F)n1` [US20240018157, Example 68]: 10 to 100 nM. For the compound `C[C@@]1(C(F)(F)F)CN(C(=O)Nc2cnc(-n3ccnn3)c(C(F)F)c2)c2cnc3cc(Cl)nn3c21` [US20240018157, Example 36], the IC50 was less than 10 nM. The compound `C[C@]1(C(F)(F)F)CN(C(=O)Nc2cnnc(C(F)F)c2)c2cnc3cc(CC(F)(F)F)nn3c21` [US20240018157, Example 196] yielded a 50% inhibitory concentration (IC50) of more than 1000 nM. Compound `CO[C@@]1(C(F)(F)F)CN(C(=O)Nc2cnc(-n3nccn3)c(Cl)c2)c2cnc3cc(Cl)nn3c21` [US20240018157, Example 136] had a 50% inhibitory concentration (IC50) of less than 10 nM.

In turn, `C[C@@]1(C(F)(F)F)CN(C(=O)Nc2cnc(-n3nccn3)c(C(F)F)c2)c2cnc3cc(Cl)nn3c21` [US20240018157, Example 35] displayed an IC50 of less than 10 nM. In turn, `C[C@H](O)c1cnn(-c2ncc(NC(=O)N3C[C@@](C)(C(F)(F)F)c4c3cnc3cc(Cl)nn43)cc2Cl)n1` [US20240018157, Example 76] showed an IC50 of less than 10 nM. Regarding `COCc1cnn(-c2ncc(NC(=O)N3C[C@@](C)(C(F)(F)F)c4c3cnc3cc(Cl)nn43)cc2Cl)n1` [US20240018157, Example 79], the IC50 is less than 10 nM.

On to `O=C(Nc1cnnc(C(F)F)c1)N1C[C@@](C2CC2)(C(F)(F)F)c2c1cnc1cc(Cl)nn21` [US20240018157, Example 144], for which the half-inhibitory concentration (IC50) was in the range of 10 to 100 nM.

Compound `C[C@@]1(C(F)(F)F)CN(C(=O)Nc2cc(O[C@H]3CCNC3)nc(C(F)(F)F)c2)c2cnc3cc(Cl)nn3c21` [US20240018157, Example 75] returned an IC50 of 10 to 100 nM. Compound `C[C@]1(C(F)(F)F)CN(C(=O)Nc2cnc(-n3nccn3)c(Cl)c2)c2cnc3c(F)cnn3c21` [US20240018157, Example 147] returned an IC50 of more than 1000 nM.

`C[C@@]1(C(F)(F)F)CN(C(=O)Nc2cnc([C@H](O)CO)c(Cl)c2)c2cnc3cc(Cl)nn3c21` [US20240018157, Example 55]: the IC50 lay within 10 to 100 nM. The figure for `C[C@@]1(C(F)(F)F)CN(C(=O)Nc2ccnc(C(F)(F)F)c2)c2cnc3cc(Cl)nn3c21` [US20240018157, Example 27] is less than 10 nM.

In turn, `C[C@@]1(C(F)(F)F)CN(C(=O)Nc2cc(C(F)F)no2)c2cnc3cc(Cl)nn3c21` [US20240018157, Example 103] returned an IC50 of 100 to 1000 nM.

`Cc1cn2ncc3c(c2n1)[C@@](C)(C(F)(F)F)CN3C(=O)Nc1cnnc(C(F)F)c1` [US20240018157, Example 120] registered an IC50 of more than 1000 nM.

`CN1CC(Nc2cc(NC(=O)N3C[C@@](C)(C(F)(F)F)c4c3cnc3cc(Cl)nn43)cc(C(F)(F)F)n2)C1` [US20240018157, Example 169] came in with a half-maximal inhibitory concentration (IC50) of more than 1000 nM. Next, `C[C@@]1(C(F)(F)F)CN(C(=O)Nc2cnnc(C(F)F)c2)c2cnc3c(F)c(F)nn3c21` [US20240018157, Example 142]: 10 to 100 nM; `C[C@@H](O)COc1ncc(NC(=O)N2C[C@@](C)(C(F)(F)F)c3c2cnc2cc(Cl)nn32)cc1Cl` [US20240018157, Example 74]: 10 to 100 nM; `Cc1nn2c3c(cnc2c1N)N(C(=O)Nc1cnc(-n2nccn2)c(Cl)c1)C[C@]3(C)C(F)(F)F` [US20240018157, Example 159]: 10 to 100 nM.

The compound `C[C@@]1(C(F)(F)F)CN(C(=O)Nc2cnc(-n3nccn3)c(C(F)F)c2)c2cnc3cc(F)nn3c21` [US20240018157, Example 104] yielded an IC50 of less than 10 nM. The figure for `C[C@]1(C(F)F)CN(C(=O)Nc2cnc(OC(F)F)c(Cl)c2)c2cnc3cc(Cl)nn3c21` [US20240018157, Example 204] is 10 to 100 nM. In turn, `C[C@@]1(C(F)(F)F)CN(C(=O)Nc2cnc(C3(O)CC3)c(Cl)c2)c2cnc3cc(Cl)nn3c21` [US20240018157, Example 67] registered an IC50 of 100 to 1000 nM. For the compound `C[C@@]1(C(F)(F)F)CN(C(=O)Nc2cnnc(C(F)F)c2)c2cnc3cc(CC(F)F)nn3c21` [US20240018157, Example 156], the 50% inhibitory concentration (IC50) was more than 1000 nM. The figure for `C[C@@]1(C(F)(F)F)CN(C(=O)Nc2cnnc(C(F)F)c2)c2cnc3cc(OC(F)F)nn3c21` [US20240018157, Example 200] is more than 1000 nM; for `C[C@@]1(C(F)(F)F)CN(C(=O)Nc2cnc(-n3nccn3)c(C(F)(F)F)c2)c2cnc3cc(F)nn3c21` [US20240018157, Example 181] it is less than 10 nM. Next, `C[C@@]1(C2CC2)CN(C(=O)Nc2cnc(-n3nccn3)c(Cl)c2)c2cnc3cc(Cl)nn3c21` [US20240018157, Example 4]: 10 to 100 nM; `C[C@@]1(C(F)(F)F)CN(C(=O)Nc2ccnc(C(F)F)c2)c2cnc3cc(F)nn3c21` [US20240018157, Example 88]: 10 to 100 nM; `COc1c(Cl)cc(NC(=O)N2C[C@@](C)(C(F)(F)F)c3c2cnc2cc(Cl)nn32)nc1O[C@H]1CCNC1` [US20240018157, Example 63]: less than 10 nM. In turn, `COC[C@]1(C(F)(F)F)CN(C(=O)Nc2cnc(-n3nccn3)c(Cl)c2)c2cnc3cc(Cl)nn3c21` [US20240018157, Example 98] registered a 50% inhibitory concentration (IC50) of 10 to 100 nM.

On to `C[C@]1(C(F)(F)F)CN(C(=O)Nc2cnc(-n3nccn3)c(C(F)F)c2)c2cnc3cc(F)nn3c21` [US20240018157, Example 105], for which the 50% inhibitory concentration (IC50) is 100 to 1000 nM. For `O=C(Nc1cnnc(C(F)F)c1)N1C[C@](C2CC2)(C(F)(F)F)c2c1cnc1cc(Cl)nn21` [US20240018157, Example 145], the IC50 lay in the range of 100 to 1000 nM.

In turn, `C[C@]1(C(F)(F)F)CN(C(=O)Nc2cnnc(C(F)F)c2)c2cnc3c(F)c(Cl)nn3c21` [US20240018157, Example 137] yielded an IC50 of more than 1000 nM. The figure for `C[C@H](O)c1cnnn1-c1ncc(NC(=O)N2C[C@@](C)(C(F)(F)F)c3c2cnc2cc(Cl)nn32)cc1C(F)F` [US20240018157, Example 184] is 10 to 100 nM; for `Cc1cc(NC(=O)N2C[C@@](C)(C(F)(F)F)c3c2cnc2cc(Cl)nn32)nc2c1cnn2C` [US20240018157, Example 176] it is more than 1000 nM; for `Cc1cc2ncc3c(n2n1)[C@](C)(C(F)(F)F)CN3C(=O)Nc1cnc(-n2nccn2)c(Cl)c1` [US20240018157, Example 32] it is less than 10 nM.

Consider `C[C@]1(C(F)(F)F)CN(C(=O)Nc2cnc(-n3nccn3)c(C(F)(F)F)c2)c2cnc3cc(F)nn3c21` [US20240018157, Example 182], for which the IC50 is more than 1000 nM. The compound `COC1CN(C(=O)c2ncc(NC(=O)N3CC(C)(C)c4c3cnn3cc(C)nc43)cc2Cl)C1` [US20240018157, Example 207] came in with an IC50 of more than 1000 nM. Next, `C[C@@]1(C(F)(F)F)CN(C(=O)Nc2cnc(C3(O)CCC3)c(Cl)c2)c2cnc3cc(Cl)nn3c21` [US20240018157, Example 168]: more than 1000 nM; `C[C@@H](O)c1cc(NC(=O)N2C[C@@](C)(C(F)(F)F)c3c2cnc2cc(Cl)nn32)cc(C(F)(F)F)n1` [US20240018157, Example 69]: 10 to 100 nM; `CN(C)C(=O)COc1ncc(NC(=O)N2C[C@@](C)(C(F)(F)F)c3c2cnc2cc(Cl)nn32)cc1C(F)F` [US20240018157, Example 108]: more than 1000 nM. Next, `C[C@]1(C(F)(F)F)CN(C(=O)Nc2cnnc(C(F)F)c2)c2cnc3cc(F)nn3c21` [US20240018157, Example 115]: 10 to 100 nM. As to `C[C@@]1(C(F)(F)F)CN(C(=O)Nc2ccnc(C(F)F)c2)c2cnc3cc(Cl)nn3c21` [US20240018157, Example 60], the half-inhibitory concentration (IC50) is less than 10 nM. On to `C[C@@]1(C(F)(F)F)CN(C(=O)N[C@@H]2CCCC[C@H]2O)c2cnc3cc(Cl)nn3c21` [US20240018157, Example 171], for which the half-maximal inhibitory concentration (IC50) is more than 1000 nM. As for `CCOc1cc(NC(=O)N2C[C@@](C)(C(F)(F)F)c3c2cnc2cc(Cl)nn32)cn(C(F)F)c1=O` [US20240018157, Example 93], the IC50 fell in the range of 10 to 100 nM. Next, `CC1CC(NC(=O)N2C[C@@](C)(C(F)(F)F)c3c2cnc2cc(Cl)nn32)CCO1` (some centres undefined) [US20240018157, Example 173]: more than 1000 nM.

Source of the values: BindingDB's records for patent US20240018157 (Schrödinger, 2024).
